How the values were obtained:
[1] = test system: T1, LRRK2 14-3-3 binding; assay: Analysis of 14-3-3 binding in HEK293 cells overexpressing wild-type LRRK2; format: cell-based, human; settings: 5 μM GZD-824 for 4 h, 1 μM GSK3357679A
T1 construct: host or cells: HEK293
Method: This was undertaken as described previously. Briefly, wild-type FLAG-LRRK2 was transiently expressed in HEK293 cells with HA-Rab29. Twenty-four hours post-transfection cells were lysed with lysis buffer and snap frozen. LRRK2 was immunoprecipitated from 4 mg of lysate using 20 μl anti-FLAG-M2 agarose beads (Sigma, #A2220) for 2 h in rotation at +4°C. Immunoprecipitates were washed once with lysis buffer supplemented with 0.5% (by vol) Nonidet P-40 (instead of Triton X-100) and 0.5 M NaCl followed by two washes. Samples were eluted in 2× LDS sample buffer (20 µl per 10 µl of resin) and heated at 70°C for 10 min. After centrifugation through 0.22 µm Spin X filter, the eluted protein was subjected to immunoblotting with the indicated antibodies. An amount of 10 μl of the final reaction mixture was needed for the detection of binding of endogenous 14-3-3 and 1 µl for detection of LRRK2.

[2] = test system: Rab29 mediated relocalization of LRRK2 to the Golgi apparatus; assay: Rab29 mediated recruitment of LRRK2 to the Golgi, immunofluorescence in HeLa cells; format: cell-based, human; settings: 5 μM GZD-824 or 1 μM GSK3357679A for 4 h
Method: HeLa cells were seeded on coverslips and transfected with the plasmid reported in each image 24 h before fixation. Following the treatments with the inhibitors described in figure legends, cells were washed twice in DPBS and fixed with 3.7% Paraformaldehyde pH 7.3 (Agar scientific, #R1026), 200 mM HEPES, for 20 min. Cells were then washed twice with DMEM, 20 mM HEPES, and then incubated for 10 min with DMEM, 10 mM HEPES. After two washes in DPBS, fixed cells were permeabilized with 0.2% (by vol) NP-40 in DPBS for 10 min. Cells were blocked using 1% (by mass) BSA in DPBS, then incubated for 1 h with primary antibodies diluted in 1% (by mass) BSA in DPBS, washed three times in 0.2% (by mass) BSA in DPBS, and incubated for 1 h with secondary antibodies. The coverslips were washed three times with 0.2% (by mass) BSA in PBS. Coverslips were washed once more in double distilled water and mounted on slides (VWR, #631-0909) using ProLong™ Diamond Antifade Mountant (ThermoFisher, #P36961). For localization of the Golgi compartment, Golgin-97 was stained with rabbit anti-GM97 (CST, #D8P2K) and visualized with goat anti-rabbit conjugated to Alexa Fluor 405 (Life Technologies, #P10994). HA-Rab29 was stained with mouse anti-HA (Abcam, clone HA.C5 #ab18181) and visualized with goat anti-mouse conjugated to Alexa Fluor 594 (Life Technologies, #A-11032). […]

[3] = test system: LRRK2 Ser935, Ser910, Ser955 and Ser973; assay: LRRK2 biomarker site phosphorylation in primary human neutrophils; format: cell-based; settings: up to 3 μM
Method: Cell extracts were mixed with a quarter of a volume of NuPage LDS Sample buffer 4× Invitrogen and heated at 95°C for 5 min. […] At the end of electrophoresis, proteins were electrophoretically transferred onto the nitrocellulose membrane (GE Healthcare, Amersham Protran Supported 0.45 µm NC) at 100 V for 90 min on ice in the transfer buffer (48 mM Tris–HCl and 39 mM glycine supplemented with 20% methanol). Transferred membrane was blocked with 5% (w/v) skim milk powder dissolved in TBS-T [20 mM Tris–HCl, pH 7.5, 150 mM NaCl and 0.1% (v/v) Tween 20] at room temperature for 1 h. The membrane was typically cropped into three pieces, namely the ‘top piece’ (from the top of the membrane to 75 kDa), the ‘middle piece’ (between 75 and 30 kDa) and the ‘bottom piece’ (from 30 kDa to the bottom of the membrane). All primary antibodies were used at 1 μg/ml final concentration and incubated in TBS-T containing 5% (by mass) bovine serum albumin with exception of α-tubulin and GAPDH antibodies that were diluted 1 : 5000 and 1 : 2000, respectively. The top piece was incubated with the indicated rabbit anti-LRRK2 phosphorylation site antibody multiplexed with mouse anti-LRRK2 C-terminus total antibody. […] Protein bands were acquired via near infrared fluorescent detection using the Odyssey CLx imaging system and quantified using the Image Studio software. […]

[4] = target: T2, Flag-LRRK2[G2019S] (Homo sapiens, UniProt Q5S007, G2019S); assay: IC50 LRRK2 Nictide assay, G2019S; format: biochemical; settings: IC50 LRRK2 G2019S (100 µM ATP), Nictide peptide substrate, value ± SD
T2 construct: towards full length wild type and G2019S pathogenic LRRK2 mutant in a biochemical assay; Flag (N); purchased ThermoFisher Scientific A15201

[5] = test system: mouse embryonic fibroblast cells (MEFs); assay: Cell morphology and attachment of MEFs; format: cell-based

T2 sequence (Q5S007 whole entry G2019S): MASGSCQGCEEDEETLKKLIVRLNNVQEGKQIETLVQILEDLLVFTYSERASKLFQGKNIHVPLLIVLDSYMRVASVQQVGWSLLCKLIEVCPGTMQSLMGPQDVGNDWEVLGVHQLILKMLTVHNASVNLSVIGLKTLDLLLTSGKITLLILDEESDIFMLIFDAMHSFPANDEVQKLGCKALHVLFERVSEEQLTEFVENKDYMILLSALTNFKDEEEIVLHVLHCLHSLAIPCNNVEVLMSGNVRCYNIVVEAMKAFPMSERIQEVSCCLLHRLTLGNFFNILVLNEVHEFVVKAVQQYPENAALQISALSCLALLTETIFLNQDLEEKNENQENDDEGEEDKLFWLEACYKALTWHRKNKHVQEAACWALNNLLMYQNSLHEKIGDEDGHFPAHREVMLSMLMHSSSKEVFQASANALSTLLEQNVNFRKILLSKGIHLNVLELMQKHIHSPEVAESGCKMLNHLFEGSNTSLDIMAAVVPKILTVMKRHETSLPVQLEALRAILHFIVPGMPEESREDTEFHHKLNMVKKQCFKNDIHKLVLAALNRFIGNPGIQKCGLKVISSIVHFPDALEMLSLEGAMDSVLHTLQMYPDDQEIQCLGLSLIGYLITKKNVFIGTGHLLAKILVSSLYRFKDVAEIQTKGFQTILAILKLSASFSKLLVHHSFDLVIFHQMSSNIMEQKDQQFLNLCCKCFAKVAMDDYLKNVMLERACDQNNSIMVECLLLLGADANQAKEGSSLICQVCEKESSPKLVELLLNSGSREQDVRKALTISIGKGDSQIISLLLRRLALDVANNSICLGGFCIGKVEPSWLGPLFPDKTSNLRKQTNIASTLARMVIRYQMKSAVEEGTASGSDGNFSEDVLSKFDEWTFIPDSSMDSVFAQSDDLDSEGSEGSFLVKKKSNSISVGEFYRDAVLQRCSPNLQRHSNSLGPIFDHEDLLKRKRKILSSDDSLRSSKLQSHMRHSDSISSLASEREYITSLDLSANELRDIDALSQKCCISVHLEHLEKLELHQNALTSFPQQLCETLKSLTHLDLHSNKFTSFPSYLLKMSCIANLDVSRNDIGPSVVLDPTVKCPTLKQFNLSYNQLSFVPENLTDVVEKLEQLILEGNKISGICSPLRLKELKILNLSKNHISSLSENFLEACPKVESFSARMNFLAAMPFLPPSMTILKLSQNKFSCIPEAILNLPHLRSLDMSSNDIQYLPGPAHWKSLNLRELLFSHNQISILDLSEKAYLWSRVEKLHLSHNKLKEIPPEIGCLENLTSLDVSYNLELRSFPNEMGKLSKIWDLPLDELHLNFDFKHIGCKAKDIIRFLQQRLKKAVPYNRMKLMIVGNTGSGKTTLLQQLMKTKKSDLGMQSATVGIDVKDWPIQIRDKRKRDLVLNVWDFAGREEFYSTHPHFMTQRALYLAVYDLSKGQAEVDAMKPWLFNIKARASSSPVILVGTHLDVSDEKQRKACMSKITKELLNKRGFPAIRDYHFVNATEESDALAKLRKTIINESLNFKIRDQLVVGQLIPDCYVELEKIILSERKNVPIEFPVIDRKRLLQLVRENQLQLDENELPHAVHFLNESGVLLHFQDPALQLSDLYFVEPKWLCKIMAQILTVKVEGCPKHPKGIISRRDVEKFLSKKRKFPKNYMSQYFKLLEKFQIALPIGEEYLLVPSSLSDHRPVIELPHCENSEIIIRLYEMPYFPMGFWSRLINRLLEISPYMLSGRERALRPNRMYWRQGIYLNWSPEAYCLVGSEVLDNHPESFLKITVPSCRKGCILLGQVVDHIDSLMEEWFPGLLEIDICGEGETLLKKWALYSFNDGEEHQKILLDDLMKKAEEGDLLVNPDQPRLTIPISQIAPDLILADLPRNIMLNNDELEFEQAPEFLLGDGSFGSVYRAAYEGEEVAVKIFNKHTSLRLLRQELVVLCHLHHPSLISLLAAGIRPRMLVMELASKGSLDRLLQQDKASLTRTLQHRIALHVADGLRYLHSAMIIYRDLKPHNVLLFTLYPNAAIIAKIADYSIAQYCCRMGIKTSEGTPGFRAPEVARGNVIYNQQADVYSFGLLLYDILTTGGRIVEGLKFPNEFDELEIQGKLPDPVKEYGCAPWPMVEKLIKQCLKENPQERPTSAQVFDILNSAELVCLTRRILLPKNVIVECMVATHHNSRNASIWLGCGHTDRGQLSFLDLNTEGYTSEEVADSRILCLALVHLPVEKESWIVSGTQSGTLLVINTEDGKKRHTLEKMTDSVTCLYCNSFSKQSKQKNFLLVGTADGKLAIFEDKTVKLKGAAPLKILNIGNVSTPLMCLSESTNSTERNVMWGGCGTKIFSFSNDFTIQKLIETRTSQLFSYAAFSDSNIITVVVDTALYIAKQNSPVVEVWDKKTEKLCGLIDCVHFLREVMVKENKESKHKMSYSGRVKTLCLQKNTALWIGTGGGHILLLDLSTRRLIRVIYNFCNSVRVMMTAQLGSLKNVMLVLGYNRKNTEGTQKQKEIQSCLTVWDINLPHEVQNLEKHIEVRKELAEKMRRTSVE

Cc1ccc(C(=O)Nc2ccc(CN3CCN(C)CC3)c(C(F)(F)F)c2)cc1C#Cc1cnc2[nH]ncc2c1 [GZD-824]
impact on 14-3-3 binding to LRRK2 [1]: no significant impact | impact on Rab29 mediated recruitment of LRRK2 to the Golgi [2]: did not significantly impact | phosphorylation of Ser935, Ser910, Ser955 and Ser973 [3]: unaffected | IC50 [4]: 80 nM | concentration that impacted cell morphology and attachment [5]: ≥ 10 μM

— PMC8589421, “Impact of Type II LRRK2 inhibitors on signaling and mitophagy” (Biochemical Journal, 2021)
